# Test results as given in patent US7468392B1, “Anti-fatigue cyclohexenone compounds from antrodia camphorata” (Golden Biotechnology Corporation, priority 2007, dated 2008).
# Entries after “also recorded” stand apart in the source; their conditions may differ.
# Experiments:
# Format in all cases: in vivo, human
# healthy male volunteers [1] = assay: Creatine phosphate kinase (CPK) activity in plasma before/after exhaustive exercise at 80% VO2max; settings: for creatine phosphate kinase levels: exercise (DE), plasma, Mean, n = 15
# Protocol: (§1) The present invention is based on supplementing cyclohexenone of Antrodia camphorata or placebo with no cyclohexenone of Antrodia camphorata to the subjects. The subjects were tested for the anti-fatigue function after supplementing cyclohexenone of Antrodia camphorata by measuring the amounts of fatigue indexes such as CPK, lactic acid, glucose, ammonia and free fatty acid before and after exhaustive exercise load at 80% VO2max.
# (§2) Subjects were randomized to receive either cyclohexenone of Antrodia camphorata or placebo. Placebo contained substances such as cornstarch but no cyclohexenone of Antrodia camphorata. A double-blind, cross-over method was performed in this study where neither the evaluator nor the subject knew the content of the test substances. Based on rules of order balance, each subject have to receive the following tests: relaxing and receiving placebo (PR), exercising and receiving placebo (PE), relaxing and receiving cyclohexenone of Antrodia camphorata (DR), and exercising and receiving cyclohexenone of Antrodia camphorata (DE). Each test was carried out for one week, and took one week off before the next test until all 4 tests were performed in each subject. The exercise was performed on a treadmill with the load intensity at the measured 80% VO2max (7.61±1.87) until exhausted. Subjects received cyclohexenone of Antrodia camphorata or placebo after exercise in the amount of 0.2 g/kg body weight per day. […] Blood was collected in anticoagulant (such as EDTA) containing collection tubes, and was centrifuged at 3000 g. for 10 min to collect the plasma. The fatigue indexes such as CPK, lactic acid, glucose, ammonia and free fatty acid were analyzed accordingly. The physiological and biochemical changes before and after exercise with different supplements were compared and shown as values of mean and standard error (Mean±SEM). […] The details for the biochemical analysis and results are described below:
# The measurement of creatine phosphate kinase was performed with an automated blood analyzer Johnson & Johnson DT-60II based on enzyme function and spectrophotometric theory. Creatine phosphate […] was added into a defined amount of plasma to react, followed by addition of 4-aminoantipyrine and 1,7-dihydroxynaphthalene. A […] product was formed through peroxidase function. The absorbance at 680 nm was measured to obtain the concentration of creatine kinase.
# healthy male volunteers [2] = assay: Anti-fatigue test for cyclohexenone of Antrodia camphorata (fatigue indexes overall); settings: after exhaustive exercising at 80% VO2max, indexes CPK, lactic acid, glucose, ammonia, free fatty acid
# Protocol: as §1
# Subjects were randomized to receive either cyclohexenone of Antrodia camphorata or placebo. Placebo contained substances such as cornstarch but no cyclohexenone of Antrodia camphorata. A double-blind, cross-over method was performed in this study where neither the evaluator nor the subject knew the content of the test substances. Based on rules of order balance, each subject have to receive the following tests: relaxing and receiving placebo (PR), exercising and receiving placebo (PE), relaxing and receiving cyclohexenone of Antrodia camphorata (DR), and exercising and receiving cyclohexenone of Antrodia camphorata (DE). […] The exercise was performed on a treadmill with the load intensity at the measured 80% VO2max (7.61±1.87) until exhausted. […] The fatigue indexes such as CPK, lactic acid, glucose, ammonia and free fatty acid were analyzed accordingly. […]
# healthy male volunteers [3] = assay: Ammonia levels in blood before/after exhaustive exercise at 80% VO2max; settings: for blood ammonia levels: plasma, Mean, n = 15; for effect of supplementation after exercise on metabolism of blood ammonia: exhaustive exercise at 80% VO2max, versus placebo
# Protocol: as §1, §2
# The measurement of blood ammonia was performed with an automated blood analyzer Johnson & Johnson DT-60II based on the spectrophotometric method. Bromphenol blue was added into a defined amount of plasma to generate blue products. The reaction is shown below:
# The absorbance at 605 nm was measured to obtain the concentration of blood ammonia.
# healthy male volunteers [4] = assay: Blood glucose before meals, before/after exhaustive exercise at 80% VO2max; settings: for blood glucose levels: plasma, Mean, n = 15; for effect of supplementation on blood glucose metabolism before meals: exhaustive exercise at 80% VO2max, versus placebo
# Protocol: as §1, §2
# The measurement of blood glucose was performed with an automated blood analyzer Johnson & Johnson DT-600 II based on enzyme function and spectrophotometric method. Glucose oxidase was added into a defined amount of plasma for reaction, followed by addition of 4-aminoantipyrine and 1,7-dihydroxyphthalene. A red product was formed through function of peroxidase. The reactions are shown below:
# The absorbance at 555 nm was measured to obtain the concentration of blood glucose.
# [5] = listed as cyclohexenone from Antrodia camphorea
# [6] = Relax (DR), Post-exercise 0.5 h
# [7] = Relax (DR), Post-exercise 120 h
# [8] = Relax (DR), Post-exercise 168 h
# [9] = exercise (DE), Post-exercise 0 h
# [10] = exercise (DE), Post-exercise 0.5 h
# [11] = exercise (DE), Post-exercise 1 h
# [12] = exercise (DE), Post-exercise 2 h
# [13] = exercise (DE), Post-exercise 24 h
# [14] = exercise (DE), Post-exercise 48 h
# [15] = exercise (DE), Post-exercise 72 h
# [16] = exercise (DE), Post-exercise 120 h
# [17] = exercise (DE), Post-exercise 168 h
# [18] = exercise (DE), Prior to exercise
# [19] = listed as cyclohexenone from Antrodia camphorata
smiles,measurement,setting,value
"COC1=C(OC)C(O)C(C/C=C(\C)CC/C=C(\C)CCC=C(C)C)C(C)C1=O (stereo not drawn) [cyclohexenone, 4-hydroxy-2,3-dimethoxy-6-methyl-5(3,7,11-trimethyl-dodeca-2,6,10-trienyl)-cyclohex-2-enone]",creatine phosphate kinase levels,healthy male volunteers [1]; Post-exercise 1 h,232.93 U/L
same,creatine phosphate kinase levels,healthy male volunteers [1]; Post-exercise 2 h,208.07 U/L
same,creatine phosphate kinase levels,healthy male volunteers [1]; Post-exercise 24 h,332.50 U/L
same,creatine phosphate kinase levels,healthy male volunteers [1]; Post-exercise 48 h,244.00 U/L
same,creatine phosphate kinase levels,healthy male volunteers [1]; Post-exercise 72 h,193.86 U/L
same,creatine phosphate kinase levels,healthy male volunteers [1]; Post-exercise 120 h,193.86 U/L
same,creatine phosphate kinase levels,healthy male volunteers [1]; Post-exercise 168 h,204.83 U/L
same,creatine phosphate kinase levels,healthy male volunteers [1]; Prior to exercise,226.64 U/L
same,effect of supplementation after exercise on creatine phosphate kinase levels,"healthy male volunteers [1]; exhaustive exercise at 80% VO2max, 0.2 g/kg body weight per day, versus placebo, listed as cyclohexenone from Antrodia camphorata",effectively decreases the muscular injury marker of creatine phosphate kinase levels; also recorded: significant effect (p<0.05) in metabolism of creatine phosphate kinase
same,anti-fatigue function (physiological fatigue after exercise),"healthy male volunteers [2]; listed as 4-hydroxy-2,3-dimethoxy-6-methyl-5(3,7,11-trimethyl-dodecca-2,6,10-trienyl)-cycl",can be used to delay physiological fatigue after exercise
same,anti-fatigue function (physiological fatigue after exercise),healthy male volunteers [2]; [5],delays physiological fatigue
same,ammonia levels in DE group versus those before exercise,healthy male volunteers [3]; 24 h post exercise,significantly lower
same,blood ammonia levels,"healthy male volunteers [3]; Relax (DR), Post-exercise 0 h",55.60 µg/dL
same,blood ammonia levels,healthy male volunteers [3]; [6],52.53 µg/dL
same,blood ammonia levels,"healthy male volunteers [3]; Relax (DR), Post-exercise 1 h",57.47 µg/dL
same,blood ammonia levels,"healthy male volunteers [3]; Relax (DR), Post-exercise 2 h",54.07 µg/dL
same,blood ammonia levels,"healthy male volunteers [3]; Relax (DR), Post-exercise 24 h",30.33 µg/dL
same,blood ammonia levels,"healthy male volunteers [3]; Relax (DR), Post-exercise 48 h",26.86 µg/dL
same,blood ammonia levels,"healthy male volunteers [3]; Relax (DR), Post-exercise 72 h",25.20 µg/dL
same,blood ammonia levels,healthy male volunteers [3]; [7],27.80 µg/dL
same,blood ammonia levels,healthy male volunteers [3]; [8],28.57 µg/dL
same,blood ammonia levels,"healthy male volunteers [3]; Relax (DR), Prior to exercise",39.20 µg/dL
same,blood ammonia levels,healthy male volunteers [3]; [9],118.07 µg/dL
same,blood ammonia levels,healthy male volunteers [3]; [10],57.64 µg/dL
same,blood ammonia levels,healthy male volunteers [3]; [11],44.86 µg/dL
same,blood ammonia levels,healthy male volunteers [3]; [12],37.53 µg/dL
same,blood ammonia levels,healthy male volunteers [3]; [13],27.93 µg/dL
same,blood ammonia levels,healthy male volunteers [3]; [14],20.93 µg/dL
same,blood ammonia levels,healthy male volunteers [3]; [15],30.07 µg/dL
same,blood ammonia levels,healthy male volunteers [3]; [16],23.21 µg/dL
same,blood ammonia levels,healthy male volunteers [3]; [17],24.86 µg/dL
same,blood ammonia levels,healthy male volunteers [3]; [18],45.86 µg/dL
same,effect of supplementation after exercise on metabolism of blood ammonia,healthy male volunteers [3]; [19],facilitates the metabolism of blood ammonia
same,effect of supplementation after exercise on metabolism of blood ammonia,healthy male volunteers [3]; [5],beneficial to the recovery of creatine phosphate kinase and blood ammonia
same,"blood ammonia level, exercise group versus relax group receiving cyclohexenone","healthy male volunteers [3]; post exercise at 2 h, p<0.05",significantly superior
same,blood glucose levels,"healthy male volunteers [4]; Relax (DR), Post-exercise 0 h",91.93 mg/dL
same,blood glucose levels,healthy male volunteers [4]; [6],93.33 mg/dL
same,blood glucose levels,"healthy male volunteers [4]; Relax (DR), Post-exercise 1 h",95.53 mg/dL
same,blood glucose levels,"healthy male volunteers [4]; Relax (DR), Post-exercise 2 h",103.20 mg/dL
same,blood glucose levels,"healthy male volunteers [4]; Relax (DR), Post-exercise 24 h",90.00 mg/dL
same,blood glucose levels,"healthy male volunteers [4]; Relax (DR), Post-exercise 48 h",90.40 mg/dL
same,blood glucose levels,"healthy male volunteers [4]; Relax (DR), Post-exercise 72 h",93.40 mg/dL
same,blood glucose levels,healthy male volunteers [4]; [7],94.00 mg/dL
same,blood glucose levels,healthy male volunteers [4]; [8],92.20 mg/dL
same,blood glucose levels,"healthy male volunteers [4]; Relax (DR), Prior to exercise",91.73 mg/dL
same,blood glucose levels,healthy male volunteers [4]; [9],103.43 mg/dL
same,blood glucose levels,healthy male volunteers [4]; [10],88.71 mg/dL
same,blood glucose levels,healthy male volunteers [4]; [11],93.86 mg/dL
same,blood glucose levels,healthy male volunteers [4]; [12],101.07 mg/dL
same,blood glucose levels,healthy male volunteers [4]; [13],94.43 mg/dL
same,blood glucose levels,healthy male volunteers [4]; [14],89.21 mg/dL
same,blood glucose levels,healthy male volunteers [4]; [15],93.00 mg/dL
same,blood glucose levels,healthy male volunteers [4]; [16],93.29 mg/dL
same,blood glucose levels,healthy male volunteers [4]; [17],92.93 mg/dL
same,blood glucose levels,healthy male volunteers [4]; [18],89.21 mg/dL
same,effect of supplementation on blood glucose metabolism before meals,healthy male volunteers [4]; [19],no effect
same,effect of supplementation on blood glucose metabolism before meals,healthy male volunteers [4]; listed as cyclohexenone of Antrodia camphorata,no significant difference
